Experimental data as given in patent US20160235717A1, “BENDAMUSTINE PHARMACEUTICAL COMPOSITIONS” (LUITPOLD PHARMACEUTICALS, INC., priority 2013, published 2016).
In brackets after ≈: the same amount, converted by molar mass. Where a name gives a salt, the structure may show the parent alone.

What was measured:
[1] = Dissolution of bendamustine HCl in DMSO/water at 15° C. (Example 6); assay type: physicochemical
Method: 37.5 ml of water was placed in a glass beaker and mixing was initiated at about 350 rpm. 2.1266 g mannitol added and mixed for about 5 minutes. About 12.5 ml of DMSO was added and solution brought to about 15° C. 1.2672 g of bendamustine HCl added and mixed. A milky solution was the result.
The sample was not used for analysis purposes, however, 3 ml of DMSO was added and the sample was cloudy. Another 3 ml of DMSO was added and the solution started to clear up. The addition of DMSO corresponds to about 35% DMSO.

[2] = cited from earlier work
[3] = Water uptake of anhydrous Bendamustine HCl; assay type: physicochemical
Method: Bendamustine HCl was an anhydrous form with a water content level of nmt 1.0%. The Bendamustine HCl used herein was not the Form 1 polymorph and was at least similar to an anhydrous version of the Form 2 polymorph. A sample of Bendamustine HCl anhydrous (with a thickness of about 2 mm was is saturated in water after 60 minutes and the water level reached about 4.7-4.8%. Exposing the Bendamustine HCl to atmospheric conditions for 1 hour caused the % water to increase to about 4.5%, corresponding to the monohydrate form (MW Bendamustine HCl=394.7 g/mol and H2O=18 g/mol; [(394.7+18)/394.7]100=104.6%).

Row | Compound | DMSO content optimal for dissolution ([1]; at 15° C., DMSO added to sample 6IB130709-1 until the solution started to clear up) | solubility in DMSO ([2]; at 25° C., has been reported) [mg/mL] | solubility in water ([2]; at 25° C., has been reported) [mg/mL] | solubility in 75% water ([1]; 25 mg/ml with mannitol 42.5 mg/ml in DMSO 25% v/v in water, about 15° C. (sample 6IB130709-1), a milky solution resulted) | water level when saturated in water ([3]; anhydrous sample, thickness about 2 mm, after 60 minutes) | % water after exposure to atmospheric conditions ([3]; exposure for 1 hour, corresponds to the monohydrate form) | solubility limit in the preferred Treanda® formulation ([2]; at 5° C., disclosed in U.S. Pat. No. 8,436,190B2) [mg/mL]
1 | Cn1c(CCCC(=O)O)nc2cc(N(CCCl)CCCl)ccc21 [bendamustine, 4-[5-[Bis(2-chloroethyl)amino]-1-methylbenzimidazol-2-yl]butanoic acid] | more than 35% | 79 (≈ 221 mM) | 15 (≈ 41.9 mM) |  |  |  | 
2 | Cn1c(CCCC(=O)O)nc2cc(N(CCCl)CCCl)ccc21 [Bendamustine HCl] |  |  |  | not found to be soluble | 4.7-4.8% | about 4.5% | 27
